Measured values from patent publication US8198299B2, “Cycloalkylidene and heterocycloalkylidene inhibitor compounds” (Gilead Sciences, Inc., priority 2008, dated 2012).

Target: HDAC 1 (Homo sapiens, UniProt Q13547)
Test: HDAC 1 inhibition assay with about 3-hour enzyme/compound preincubation (fluorophore/quencher peptide substrate)
Format: biochemical
Conditions: 3-hour preincubation of enzyme and compound at room temperature; read-out: HDAC 1 inhibitory activity (IC50 [μM]) (3-hour preincubation)
Protocol: HDAC inhibitory activity of the compound of Example 1 was measured by two types of assays in which HDAC 1 and 6 were used as a target molecule. The first assay was carried out without preincubation after addition of the enzyme. The test compound was suspended in and titrated in DMSO. It was then spotted into a 384-well test plate. The enzyme, HDAC 1 or 6, was diluted in assay buffer containing 25 mM Tris-HCl (pH 8.0), 137 mM NaCl, 2.7 mM KCl, and 0.01% Tween-20 and added to the pre-spotted compound. The peptide substrate containing a fluorophore/quencher pair was diluted in the same assay buffer and added to the compound/enzyme mix initiating the reaction. The reaction incubated at room temperature for about 45 minutes. A concentrated developer solution was diluted in the assay buffer, and added to the reaction. The reaction was incubated at room temperature for about 15 minutes and relative fluorescence was read on an instrument reader.
The second assay is similar to the first assay described above, except that preincubation is carried out for about 3 hours after the enzyme is introduced. The test compound was suspended in, and titrated in DMSO. It was then spotted into a 384-well test plate. The enzyme, HDAC 1 or 6, was diluted in the same assay buffer as used in the previous assay and added to the pre-spotted compound. The enzyme/compound mix was incubated at room temperature for about 3 hours. The peptide substrate containing a fluorophore/quencher pair was diluted in the assay buffer and added to the compound/enzyme mix initiating the reaction. The reaction incubated at room temperature for 45 minutes. A concentrated developer solution was diluted in the assay buffer, and added to the reaction. The reaction was incubated at room temperature for about 15 minutes and relative fluorescence was read on an instrument reader.

HDAC 1, sequence (Q13547 whole entry, species assumed): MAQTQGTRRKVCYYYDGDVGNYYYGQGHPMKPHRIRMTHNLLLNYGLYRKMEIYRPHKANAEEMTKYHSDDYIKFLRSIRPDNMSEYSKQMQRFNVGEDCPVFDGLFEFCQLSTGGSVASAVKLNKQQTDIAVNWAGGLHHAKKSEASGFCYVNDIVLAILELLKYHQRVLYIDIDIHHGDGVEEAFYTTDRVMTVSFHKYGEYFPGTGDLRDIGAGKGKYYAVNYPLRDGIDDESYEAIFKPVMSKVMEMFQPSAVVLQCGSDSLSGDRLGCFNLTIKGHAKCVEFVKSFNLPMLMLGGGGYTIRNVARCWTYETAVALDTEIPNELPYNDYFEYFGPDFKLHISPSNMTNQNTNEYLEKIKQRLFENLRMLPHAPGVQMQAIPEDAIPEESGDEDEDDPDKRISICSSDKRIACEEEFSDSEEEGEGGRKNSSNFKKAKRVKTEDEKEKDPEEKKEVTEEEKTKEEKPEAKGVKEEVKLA

For CN1CCN(c2ccc(-c3csc(C4(c5ccc(C(=O)Nc6ccccc6N)cc5)CCOCC4)n3)cc2)CC1 [Example 47, N-(2-aminophenyl)-4-(4-(4-(4-(4-methylpiperazin-1-yl)phenyl)thiazol-2-yl)tetrahydropyran-4-yl)benzamide], the IC50 was 0.00576 µM.
In the case of Nc1ccc(-c2ccc(F)cc2)cc1NC(=O)c1ccc(C2(c3ccccn3)CCOCC2)cc1 [Example 59, N-(4-amino-4′-fluorobiphenyl-3-yl)-4-(4-(pyridin-2-yl)tetrahydropyran-4-yl)benzamide], the IC50 is reported as 0.00231 µM.
Cc1nc(C2(c3ccc(C(=O)Nc4ccccc4N)cc3)CC2)sc1C(=O)N(C)C [Example 4, 2-(1-(4-(2-aminophenylcarbamoyl)phenyl)cyclopropyl)-N,N-4-trimethylthiazole-5-carboxamide] gave an IC50 of 0.331 µM.
In the case of Nc1ccc(-c2ccc(Cl)s2)cc1NC(=O)c1ccc(C2(c3ccccn3)CCOCC2)cc1 [Example 60, N-(2-amino-5-(5-chlorothiophen-2-yl)phenyl)-4-(4-(pyridin-2-yl)tetrahydropyran-4-yl)benzamide], the IC50 is reported as 0.00616 µM.
Nc1ccc(-c2cccs2)cc1NC(=O)c1ccc(C2(c3ccccn3)CCOCC2)cc1 [Example 49] was tested, and the IC50 was 0.00247 µM.
For CN1CCc2nc(C3(c4ccc(C(=O)Nc5cc(-c6ccc(F)cc6)ccc5N)cc4)CC3)sc2C1 [Example 56, N-(4-amino-4′-fluorobiphenyl-3-yl)-4-(1-(5-methyl-4,5,6,7-tetrahydrothiazolo[5,4-c]pyridine-2-yl)cyclopropyl)benzamide], the IC50 was 0.00325 µM.
In the case of Cc1ccc(-c2ccc(N)c(NC(=O)c3ccc(C4(c5nccs5)CCOCC4)cc3)c2)s1 [Example 46, N-(2-amino-5-(5-methylthiophen-2-yl)phenyl)-4-(4-(thiazol-2-yl)tetrahydropyran-4-yl)benzamide], the IC50 is reported as 0.00749 µM.
Nc1ccccc1NC(=O)c1ccc(C2(c3nc(-c4cccnc4)cs3)CCCC2)cc1 [Example 6, N-(2-Amino-phenyl)-4-[1-(4-pyridin-3-yl-thiazol-2-yl)-cyclopentyl]-benzamide] was tested, and the IC50 was 0.012 µM.
With O=C(NO)c1ccc(C2(c3nc(-c4cnccn4)cs3)CCOCC2)cc1 [Example 53, N-hydroxy-4-(4-(4-(pyrazin-2-yl)thiazol-2-yl)tetrahydropyran-4-yl)benzamide] the IC50 was 0.0979 µM.
CN1CCN(c2ccc(-c3csc(C4(c5ccc(C(=O)NO)cc5)CCOCC4)n3)cn2)CC1 [Example 44, N-hydroxy-4-(4-(4-(6-(4-methylpiperazin-1-yl)pyridin-3-yl)thiazol-2-yl)tetrahydropyran-4-yl)benzamide] showed an IC50 of 0.0071 µM.
Work on Nc1ccc(F)cc1NC(=O)c1ccc(C2(c3nc(-c4cccnc4)cs3)CCOCC2)cc1 [Example 23, N-(2-amino-5-fluorophenyl)-4-(4-(4-(pyridin-3-yl)thiazol-2-yl)tetrahydropyran-4-yl)benzamide] yielded an IC50 of 0.032 µM.
CCOc1csc(C2(c3ccc(C(=O)Nc4cc(-c5ccc(F)cc5)ccc4N)cc3)CCOCC2)n1 [Example 40, N-(4-amino-4′-fluorobiphenyl-3-yl)-4-(4-(4-ethoxythiazol-2-yl)tetrahydropyran-4-yl)benzamide] showed an IC50 of 0.00639 µM.
For Nc1ccc(-c2ccc(F)cc2)cc1NC(=O)c1ccc(C2(c3nccs3)CC2)cc1 [Example 48, N-(4-amino-4′-fluorobiphenyl-3-yl)-4-(1-(thiazol-2-yl)cyclopropyl)benzamide], the IC50 was 0.00294 µM.
Nc1ccc(-c2cccs2)cc1NC(=O)c1ccc(C2(c3ncc(-c4cccnc4)s3)CCOCC2)cc1 [Example 51, N-(2-amino-5-(thiophen-2-yl)phenyl)-4-(4-(5-(pyridin-3-yl)thiazol-2-yl)tetrahydropyran-4-yl)benzamide] was tested, and the IC50 was 0.0039 µM.
Work on CCOC(=O)N1CCc2nc(C3(c4ccc(C(=O)Nc5ccccc5N)cc4)CC3)sc2C1 [Example 12] yielded an IC50 of 0.016 µM.
In the case of Cc1nc2ccccn2c1-c1csc(C2(c3ccc(C(=O)Nc4ccccc4N)cc3)CC2)n1 [Example 1, N-(2-amino-phenyl)-4-{1-[4-(2-methyl-imidazo[1,2-a]pyridin-3-yl)-thiazol-2-yl]-cyclopropyl}-benzamide], the IC50 is reported as 0.0239 µM.
In the case of CC(C)[C@H](N)C(=O)N1CCc2nc(C3(c4ccc(C(=O)Nc5ccccc5N)cc4)CC3)sc2C1 [Example 17, (S)-4-(1-(5-(2-amino-3-methylbutanoyl)-4,5,6,7-tetrahydrothiazolo[5,4-c]pyridin-2-yl)cyclopropyl)-N-(2-aminophenyl)benzamide], the IC50 is reported as 0.0982 µM.
In the case of Cc1nc(C2(c3ccc(C(=O)Nc4cc(-c5ccc(F)cc5)ccc4N)cc3)CCOCC2)sc1C [Example 62, N-(4-amino-4′-fluorobiphenyl-3-yl)-4-(4-(4,5-dimethylthiazol-2-yl)tetrahydropyran-4-yl)benzamide], the IC50 is reported as 0.00896 µM.
Nc1ccccc1NC(=O)c1ccc(C2(c3nc4c(s3)CCCC4)CC2)cc1 [Example 11, N-(2-amino-phenyl)-4-[1-(4,5,6,7-tetrahydro-benzothiazol-2-yl)-cyclopropyl]-benzamide] showed an IC50 of 0.069 µM.
In the case of Nc1ccccc1NC(=O)c1ccc(C2(c3nc(-c4cnccn4)cs3)CC2)cc1 [Example 55, N-(2-aminophenyl)-4-(1-(4-(pyrazin-2-yl)thiazol-2-yl)cyclopropyl)benzamide], the IC50 is reported as 0.0444 µM.
With CCOc1csc(C2(c3ccc(C(=O)Nc4cc(-c5cccs5)ccc4N)cc3)CCOCC2)n1 [Example 37, N-(2-amino-5-(thiophen-2-yl)phenyl)-4-(4-(4-ethoxythiazol-2-yl)tetrahydropyran-4-yl)benzamide] the IC50 was 0.00388 µM.
In the case of CC(C)NC(=O)c1csc(C2(c3ccc(C(=O)Nc4ccccc4N)cc3)CC2)n1 [Example 10, 2-(1-(4-(2-aminophenylcarbamoyl)phenyl)cyclopropyl)-N-isopropylthiazole-4-carboxamide], the IC50 is reported as 0.279 µM.
Nc1ccccc1NC(=O)c1ccc(C2(c3nc(-c4cnccn4)cs3)CCOCC2)cc1 [Example 41, N-(2-aminophenyl)-4-(4-(4-(pyrazin-2-yl)thiazol-2-yl)tetrahydropyran-4-yl)benzamide] gave an IC50 of 0.00702 µM.
With Nc1ccccc1NC(=O)c1ccc(C2(c3nc(-c4cccnc4)cs3)CCOCC2)cc1 [Example 8, N-(2-Amino-phenyl)-4-[4-(4-pyridin-3-yl-thiazol-2-yl)-tetrahydro-pyran-4-yl]-benzamide] the IC50 was 0.037 µM.
With O=C(NO)c1ccc(C2(c3nccs3)CCOCC2)cc1 [Example 43, N-hydroxy-4-(4-(thiazol-2-yl)tetrahydropyran-4-yl)benzamide] the IC50 was 0.363 µM.
For Nc1ccccc1NC(=O)c1ccc(C2(c3nccs3)CCOCC2)cc1 [Example 15], the IC50 was 0.119 µM.
Nc1ccc(-c2ccc(F)cc2)cc1NC(=O)c1ccc(C2(c3nc4c(s3)COCC4)CC2)cc1 [Example 58, N-(4-amino-4′-fluorobiphenyl-3-yl)-4-(1-(6,7-dihydropyrano[4,3-d]thiazol-2-yl)cyclopropyl)benzamide] showed an IC50 of 0.0208 µM.
Nc1ccccc1NC(=O)c1ccc(C2(c3nc(-c4ccc(N5CCN(C6CC6)CC5)nc4)cs3)CCOCC2)cc1 [Example 34, N-(2-aminophenyl)-4-(4-(4-(6-(4-cyclopropylpiperazin-1-yl)pyridin-3-yl)thiazol-2-yl)tetrahydropyran-4-yl)benzamide] gave an IC50 of 0.0066 µM.
Work on Nc1ccc(-c2cccs2)cc1NC(=O)c1ccc(C2(c3nc(CN4CCOCC4)cs3)CCOCC2)cc1 [Example 33, N-(2-amino-5-(thiophen-2-yl)phenyl)-4-(4-(4-(morpholinomethyl)thiazol-2-yl)tetrahydropyran-4-yl)benzamide] yielded an IC50 of 0.0029 µM.
Cc1csc(C2(c3ccc(C(=O)Nc4ccccc4N)cc3)CC2)n1 [Example 16, N-(2-aminophenyl)-4-(1-(4-methylthiazol-2-yl)cyclopropyl)benzamide] was tested, and the IC50 was 0.0988 µM.
O=C(NO)c1ccc(C2(c3nc(-c4cccnc4)cs3)CCOCC2)cc1 [Example 42, N-hydroxy-4-(4-(4-(pyridin-3-yl)thiazol-2-yl)tetrahydropyran-4-yl)benzamide] showed an IC50 of 0.0351 µM.
Cc1nc2ccccn2c1-c1csc(C2(c3ccc(C(=O)Nc4ccccc4N)cc3)CCOCC2)n1 [Example 9, N-(2-Amino-phenyl)-4-{4-[4-(2-methyl-imidazo[1,2-a]pyridin-3-yl)-thiazol-2-yl]-tetrahydro-pyran-4-yl}-benzamide] gave an IC50 of 0.003 µM.
COCCOCc1csc(C2(c3ccc(C(=O)Nc4cc(-c5cccs5)ccc4N)cc3)CCOCC2)n1 [Example 32, N-(2-amino-5-(thiophen-2-yl)phenyl)-4-(4-(4-((2-methoxyethoxy)methyl)thiazol-2-yl)tetrahydropyran-4-yl)benzamide] was tested, and the IC50 was 0.0025 µM.
Molecule Nc1ccc(-c2ccc(Cl)s2)cc1NC(=O)c1ccc(C2(c3nccs3)CCOCC2)cc1 [Example 45, N-(2-amino-5-(5-chlorothiophen-2-yl)phenyl)-4-(4-(thiazol-2-yl)tetrahydropyran-4-yl)benzamide] has an IC50 of 0.00606 µM.
In the case of Cc1nc2ccccn2c1-c1csc(C2(c3ccc(C(=O)NO)cc3)CC2)n1 [Example 2, N-hydroxy-4-{1-[4-(2-methyl-imidazo[1,2-a]pyridin-3-yl)-thiazol-2-yl]-cyclopropyl}-benzamide], the IC50 is reported as 0.024 µM.
